Test results from article PMC8401933 (Molecules, 2021).

Assays:
Assay in all cases: KINOMEscan binding
PIK3CA(Q546K) = target: T1, PIK3CA(Q546K) (Homo sapiens, UniProt P42336, Q546K); details: read-out: Percent Control
T1 construct: purchased Eurofins DiscoverX KINOMEscan

FLT1 = target: T2, FLT1 (Homo sapiens, UniProt P17948); details: read-out: Percent Control
T2 construct: purchased Eurofins DiscoverX KINOMEscan

PIK3CA(I800L) = target: T3, PIK3CA(I800L) (Homo sapiens, UniProt P42336, I800L); details: read-out: Percent Control
T3 construct: purchased Eurofins DiscoverX KINOMEscan

MAP4K2 = target: T4, MAP4K2 (Homo sapiens, UniProt Q12851); details: read-out: Percent Control
T4 construct: purchased Eurofins DiscoverX KINOMEscan

PDGFRB = target: T5, PDGFRB (Homo sapiens, UniProt P09619); details: read-out: Percent Control
T5 construct: purchased Eurofins DiscoverX KINOMEscan

IGF1R = target: T6, IGF1R (Homo sapiens, UniProt P08069); details: read-out: Percent Control
T6 construct: purchased Eurofins DiscoverX KINOMEscan

NIM1 = target: T7, NIM1 (Homo sapiens, UniProt Q8IY84); details: read-out: Percent Control
T7 construct: purchased Eurofins DiscoverX KINOMEscan

ROCK1 = target: T8, ROCK1 (Homo sapiens, UniProt Q13464)
T8 construct: purchased Eurofins DiscoverX KINOMEscan
T8 sequence (Q13464 whole entry): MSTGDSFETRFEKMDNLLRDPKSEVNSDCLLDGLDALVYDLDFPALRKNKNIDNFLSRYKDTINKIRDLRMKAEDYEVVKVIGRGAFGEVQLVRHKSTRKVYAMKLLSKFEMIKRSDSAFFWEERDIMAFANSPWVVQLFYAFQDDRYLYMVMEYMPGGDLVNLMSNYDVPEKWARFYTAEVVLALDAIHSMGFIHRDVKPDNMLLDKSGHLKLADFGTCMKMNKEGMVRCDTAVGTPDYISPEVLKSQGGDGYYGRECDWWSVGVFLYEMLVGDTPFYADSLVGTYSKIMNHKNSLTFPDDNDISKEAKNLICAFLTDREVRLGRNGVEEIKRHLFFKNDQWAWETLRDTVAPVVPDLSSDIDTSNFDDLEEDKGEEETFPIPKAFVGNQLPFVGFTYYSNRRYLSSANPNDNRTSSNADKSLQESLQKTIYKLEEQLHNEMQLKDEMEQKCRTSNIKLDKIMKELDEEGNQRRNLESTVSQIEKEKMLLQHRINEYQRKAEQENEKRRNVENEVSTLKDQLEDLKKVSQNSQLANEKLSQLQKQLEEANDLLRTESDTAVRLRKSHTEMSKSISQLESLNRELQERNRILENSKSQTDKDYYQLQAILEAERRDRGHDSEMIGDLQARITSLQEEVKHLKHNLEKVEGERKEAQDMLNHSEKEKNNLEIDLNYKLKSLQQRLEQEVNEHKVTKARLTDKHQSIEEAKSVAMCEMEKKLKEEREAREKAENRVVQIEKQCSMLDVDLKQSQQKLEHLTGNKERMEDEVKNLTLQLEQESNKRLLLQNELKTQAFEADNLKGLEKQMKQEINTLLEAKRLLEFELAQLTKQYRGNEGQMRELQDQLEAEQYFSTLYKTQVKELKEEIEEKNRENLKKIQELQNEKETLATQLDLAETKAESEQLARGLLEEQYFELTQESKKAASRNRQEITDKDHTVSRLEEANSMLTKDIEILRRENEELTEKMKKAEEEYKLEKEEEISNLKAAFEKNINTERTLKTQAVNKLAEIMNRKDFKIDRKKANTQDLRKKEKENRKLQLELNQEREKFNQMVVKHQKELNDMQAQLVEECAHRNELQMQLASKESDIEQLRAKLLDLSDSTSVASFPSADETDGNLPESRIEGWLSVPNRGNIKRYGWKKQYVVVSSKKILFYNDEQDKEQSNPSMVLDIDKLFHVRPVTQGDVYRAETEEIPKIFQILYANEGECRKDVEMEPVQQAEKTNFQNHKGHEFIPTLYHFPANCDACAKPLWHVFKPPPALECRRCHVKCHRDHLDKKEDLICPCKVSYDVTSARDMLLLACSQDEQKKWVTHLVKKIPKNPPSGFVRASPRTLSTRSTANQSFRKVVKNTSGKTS

CDC2L2 = target: T9, CDC2L2 (Homo sapiens, UniProt Q9UQ88); details: read-out: Percent Control
T9 construct: purchased Eurofins DiscoverX KINOMEscan

TNK1 = target: T10, TNK1 (Homo sapiens, UniProt Q13470); details: read-out: Percent Control
T10 construct: purchased Eurofins DiscoverX KINOMEscan

MKNK1 = target: T11, MKNK1 (Homo sapiens, UniProt Q9BUB5); details: read-out: Percent Control
T11 construct: purchased Eurofins DiscoverX KINOMEscan

[1] = target: T12, TYK2(JH2domain-pseudokinase) (Homo sapiens, UniProt P29597); details: read-out: Percent Control
T12 construct: TYK2(JH2domain-pseudokinase); purchased Eurofins DiscoverX KINOMEscan
T12 sequence (P29597 556-888 limits assumed): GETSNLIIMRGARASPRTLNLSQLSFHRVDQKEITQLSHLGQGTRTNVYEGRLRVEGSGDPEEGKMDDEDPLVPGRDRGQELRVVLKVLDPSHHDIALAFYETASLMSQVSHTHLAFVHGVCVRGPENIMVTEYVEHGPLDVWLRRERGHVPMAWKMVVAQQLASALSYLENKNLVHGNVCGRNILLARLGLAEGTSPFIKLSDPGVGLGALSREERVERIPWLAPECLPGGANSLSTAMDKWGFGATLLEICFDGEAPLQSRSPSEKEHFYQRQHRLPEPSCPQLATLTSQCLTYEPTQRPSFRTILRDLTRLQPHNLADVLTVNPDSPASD

RET(V804L) = target: T13, RET(V804L) (Homo sapiens, UniProt P07949, V804L); details: read-out: Percent Control
T13 construct: purchased Eurofins DiscoverX KINOMEscan

PRKCQ = target: T14, PRKCQ (Homo sapiens, UniProt Q04759); details: read-out: Percent Control
T14 construct: purchased Eurofins DiscoverX KINOMEscan

DYRK2 = target: T15, DYRK2 (Homo sapiens, UniProt Q92630); details: read-out: Percent Control
T15 construct: purchased Eurofins DiscoverX KINOMEscan

DDR2 = target: T16, DDR2 (Homo sapiens, UniProt Q16832); details: read-out: Percent Control
T16 construct: purchased Eurofins DiscoverX KINOMEscan
T16 sequence (Q16832 22-855): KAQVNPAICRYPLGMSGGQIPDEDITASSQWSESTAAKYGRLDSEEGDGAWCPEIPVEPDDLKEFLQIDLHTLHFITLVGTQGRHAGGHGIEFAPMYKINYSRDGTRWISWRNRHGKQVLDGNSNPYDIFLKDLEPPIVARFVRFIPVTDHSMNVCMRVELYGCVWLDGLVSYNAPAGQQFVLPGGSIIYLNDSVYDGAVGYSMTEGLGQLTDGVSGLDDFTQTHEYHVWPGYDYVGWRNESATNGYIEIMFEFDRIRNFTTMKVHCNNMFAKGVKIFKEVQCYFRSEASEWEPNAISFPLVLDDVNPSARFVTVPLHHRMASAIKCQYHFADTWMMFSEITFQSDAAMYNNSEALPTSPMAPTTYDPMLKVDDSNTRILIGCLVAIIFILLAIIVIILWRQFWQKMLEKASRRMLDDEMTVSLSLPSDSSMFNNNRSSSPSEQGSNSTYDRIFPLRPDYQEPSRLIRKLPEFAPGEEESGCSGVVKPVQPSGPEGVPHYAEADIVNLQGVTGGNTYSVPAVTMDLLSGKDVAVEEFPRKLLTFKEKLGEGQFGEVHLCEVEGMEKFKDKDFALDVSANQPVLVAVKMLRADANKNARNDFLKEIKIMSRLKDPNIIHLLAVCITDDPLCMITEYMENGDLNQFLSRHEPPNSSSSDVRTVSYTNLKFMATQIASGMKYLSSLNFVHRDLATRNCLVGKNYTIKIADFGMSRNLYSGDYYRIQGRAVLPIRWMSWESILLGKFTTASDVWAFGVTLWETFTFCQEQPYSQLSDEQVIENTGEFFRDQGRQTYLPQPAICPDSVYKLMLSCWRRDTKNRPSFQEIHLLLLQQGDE

ALK = target: T17, ALK (Homo sapiens, UniProt Q9UM73); details: read-out: Percent Control
T17 construct: purchased Eurofins DiscoverX KINOMEscan

[2] = target: T18, RPS6KA4(Kin.Dom.1-N-terminal) (Homo sapiens, UniProt O75676); details: read-out: Percent Control
T18 construct: RPS6KA4(Kin.Dom.1-N-terminal); purchased Eurofins DiscoverX KINOMEscan

MARK2 = target: T19, MARK2 (Homo sapiens, UniProt Q7KZI7); details: read-out: Percent Control
T19 construct: purchased Eurofins DiscoverX KINOMEscan

CDK11 = target: T20, CDK11 (Homo sapiens, UniProt Q9BWU1); details: read-out: Percent Control
T20 construct: purchased Eurofins DiscoverX KINOMEscan

ERK2 = target: T21, ERK2 (Homo sapiens, UniProt P28482); details: read-out: Percent Control
T21 construct: purchased Eurofins DiscoverX KINOMEscan

CSNK2A2 = target: T22, CSNK2A2 (Homo sapiens, UniProt P19784); details: read-out: Percent Control
T22 construct: purchased Eurofins DiscoverX KINOMEscan

AKT1 = target: T23, AKT1 (Homo sapiens, UniProt P31749); details: read-out: Percent Control
T23 construct: purchased Eurofins DiscoverX KINOMEscan

[3] = target: T24, JAK3(JH1domain-catalytic) (Homo sapiens, UniProt P52333); details: read-out: Percent Control
T24 construct: JAK3(JH1domain-catalytic); purchased Eurofins DiscoverX KINOMEscan

NEK9 = target: T25, NEK9 (Homo sapiens, UniProt Q8TD19); details: read-out: Percent Control
T25 construct: purchased Eurofins DiscoverX KINOMEscan

PAK4 = target: T26, PAK4 (Homo sapiens, UniProt O96013); details: read-out: Percent Control
T26 construct: purchased Eurofins DiscoverX KINOMEscan

PFTAIRE2 = target: T27, PFTAIRE2 (Homo sapiens, UniProt Q96Q40); details: read-out: Percent Control
T27 construct: purchased Eurofins DiscoverX KINOMEscan

TAK1 = target: T28, TAK1 (Homo sapiens, UniProt O43318); details: read-out: Percent Control
T28 construct: purchased Eurofins DiscoverX KINOMEscan

[4] = target: T29, RSK3(Kin.Dom.2-C-terminal) (Homo sapiens, UniProt Q15349); details: read-out: Percent Control
T29 construct: RSK3(Kin.Dom.2-C-terminal); purchased Eurofins DiscoverX KINOMEscan

CAMK2D = target: T30, CAMK2D (Homo sapiens, UniProt Q13557); details: read-out: Percent Control
T30 construct: purchased Eurofins DiscoverX KINOMEscan

MAP3K1 = target: T31, MAP3K1 (Homo sapiens, UniProt Q13233); details: read-out: Percent Control
T31 construct: purchased Eurofins DiscoverX KINOMEscan

FES = target: T32, FES (Homo sapiens, UniProt P07332); details: read-out: Percent Control
T32 construct: purchased Eurofins DiscoverX KINOMEscan

MAK = target: T33, MAK (Homo sapiens, UniProt P20794); details: read-out: Percent Control
T33 construct: purchased Eurofins DiscoverX KINOMEscan

TLK2 = target: T34, TLK2 (Homo sapiens, UniProt Q86UE8); details: read-out: Percent Control
T34 construct: purchased Eurofins DiscoverX KINOMEscan

CDC2L1 = target: T35, CDC2L1 (Homo sapiens, UniProt P21127); details: read-out: Percent Control
T35 construct: purchased Eurofins DiscoverX KINOMEscan
T35 sequence (P21127 whole entry): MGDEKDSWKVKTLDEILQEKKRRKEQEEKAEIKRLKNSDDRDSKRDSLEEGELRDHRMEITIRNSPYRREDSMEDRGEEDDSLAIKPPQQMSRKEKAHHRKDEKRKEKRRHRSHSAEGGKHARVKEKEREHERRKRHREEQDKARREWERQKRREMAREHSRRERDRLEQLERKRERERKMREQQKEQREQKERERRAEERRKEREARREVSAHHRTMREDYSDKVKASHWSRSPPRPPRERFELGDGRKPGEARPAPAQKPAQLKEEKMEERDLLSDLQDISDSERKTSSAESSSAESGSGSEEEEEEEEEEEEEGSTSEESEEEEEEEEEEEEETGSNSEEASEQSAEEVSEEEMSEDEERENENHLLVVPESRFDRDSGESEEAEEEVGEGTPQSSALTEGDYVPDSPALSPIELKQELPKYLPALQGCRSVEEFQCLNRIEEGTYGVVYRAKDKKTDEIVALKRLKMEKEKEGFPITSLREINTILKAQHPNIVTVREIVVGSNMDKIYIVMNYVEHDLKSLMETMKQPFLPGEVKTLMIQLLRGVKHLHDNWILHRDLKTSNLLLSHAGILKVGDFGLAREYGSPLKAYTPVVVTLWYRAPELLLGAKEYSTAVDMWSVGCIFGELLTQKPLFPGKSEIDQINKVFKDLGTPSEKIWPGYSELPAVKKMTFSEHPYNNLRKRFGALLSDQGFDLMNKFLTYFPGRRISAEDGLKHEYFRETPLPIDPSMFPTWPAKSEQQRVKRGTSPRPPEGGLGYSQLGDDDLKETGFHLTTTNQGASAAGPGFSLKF

GAK = target: T36, GAK (Homo sapiens, UniProt O14976); details: read-out: Percent Control
T36 construct: purchased Eurofins DiscoverX KINOMEscan
T36 sequence (O14976 whole entry): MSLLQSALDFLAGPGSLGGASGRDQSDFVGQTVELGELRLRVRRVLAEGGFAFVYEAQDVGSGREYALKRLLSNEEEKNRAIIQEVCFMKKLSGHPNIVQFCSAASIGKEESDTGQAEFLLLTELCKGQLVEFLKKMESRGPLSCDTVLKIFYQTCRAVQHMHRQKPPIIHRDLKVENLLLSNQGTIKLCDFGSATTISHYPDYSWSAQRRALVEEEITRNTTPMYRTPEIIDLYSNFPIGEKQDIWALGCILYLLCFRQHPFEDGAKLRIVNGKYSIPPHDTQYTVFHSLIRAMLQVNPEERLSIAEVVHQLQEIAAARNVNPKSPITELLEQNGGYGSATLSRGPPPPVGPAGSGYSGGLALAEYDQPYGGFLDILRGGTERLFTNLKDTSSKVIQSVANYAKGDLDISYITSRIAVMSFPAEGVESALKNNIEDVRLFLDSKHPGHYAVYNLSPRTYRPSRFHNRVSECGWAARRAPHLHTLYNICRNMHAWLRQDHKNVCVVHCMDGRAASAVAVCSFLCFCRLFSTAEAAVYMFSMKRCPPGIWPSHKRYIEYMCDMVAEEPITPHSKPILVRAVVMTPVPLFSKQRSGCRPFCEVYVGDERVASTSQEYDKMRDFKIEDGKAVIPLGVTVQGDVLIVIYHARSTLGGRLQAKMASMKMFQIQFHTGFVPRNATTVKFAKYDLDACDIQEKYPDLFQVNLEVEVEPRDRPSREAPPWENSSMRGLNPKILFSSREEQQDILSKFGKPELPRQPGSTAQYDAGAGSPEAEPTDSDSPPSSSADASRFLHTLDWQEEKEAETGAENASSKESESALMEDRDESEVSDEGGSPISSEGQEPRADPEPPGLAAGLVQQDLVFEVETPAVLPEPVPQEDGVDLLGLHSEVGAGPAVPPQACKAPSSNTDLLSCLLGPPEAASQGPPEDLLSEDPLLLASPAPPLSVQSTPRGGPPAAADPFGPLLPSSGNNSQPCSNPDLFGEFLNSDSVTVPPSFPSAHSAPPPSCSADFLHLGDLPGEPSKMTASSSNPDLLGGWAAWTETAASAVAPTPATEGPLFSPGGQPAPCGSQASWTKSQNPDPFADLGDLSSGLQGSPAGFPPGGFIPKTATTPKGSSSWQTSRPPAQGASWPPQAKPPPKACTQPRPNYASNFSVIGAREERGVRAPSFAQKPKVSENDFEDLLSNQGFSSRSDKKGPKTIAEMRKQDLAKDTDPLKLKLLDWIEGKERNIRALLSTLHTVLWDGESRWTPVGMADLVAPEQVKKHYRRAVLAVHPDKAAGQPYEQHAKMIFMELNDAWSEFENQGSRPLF

TRKA = target: T37, TRKA (Homo sapiens, UniProt P04629); details: read-out: Percent Control
T37 construct: purchased Eurofins DiscoverX KINOMEscan

JNK1 = target: T38, JNK1 (Homo sapiens, UniProt P45983); details: read-out: Percent Control
T38 construct: purchased Eurofins DiscoverX KINOMEscan

TYRO3 = target: T39, TYRO3 (Homo sapiens, UniProt Q06418); details: read-out: Percent Control
T39 construct: purchased Eurofins DiscoverX KINOMEscan

BRSK2 = target: T40, BRSK2 (Homo sapiens, UniProt Q8IWQ3); details: read-out: Percent Control
T40 construct: purchased Eurofins DiscoverX KINOMEscan

ABL1-phosphorylated = target: T41, ABL1-phosphorylated (Homo sapiens, UniProt P00519); details: read-out: Percent Control
T41 construct: purchased Eurofins DiscoverX KINOMEscan

CDK3 = target: T42, CDK3 (Homo sapiens, UniProt Q00526); details: read-out: Percent Control
T42 construct: purchased Eurofins DiscoverX KINOMEscan
T42 sequence (Q00526 whole entry): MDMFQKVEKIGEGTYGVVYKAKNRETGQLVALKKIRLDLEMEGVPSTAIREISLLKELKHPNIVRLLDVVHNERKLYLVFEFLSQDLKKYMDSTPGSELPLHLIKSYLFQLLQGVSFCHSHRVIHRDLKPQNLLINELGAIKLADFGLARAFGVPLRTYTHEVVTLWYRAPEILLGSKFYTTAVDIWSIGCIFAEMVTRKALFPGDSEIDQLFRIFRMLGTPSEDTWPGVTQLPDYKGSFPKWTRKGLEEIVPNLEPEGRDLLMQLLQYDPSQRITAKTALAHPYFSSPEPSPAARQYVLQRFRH

## CC(C)NC(=O)COc1cccc(-c2nc(Nc3ccc4[nH]ncc4c3)c3ccccc3n2)c1 [KD025, 2-(3-(4-((1H-indazol-5-yl)amino)quinazolin-2-yl)phenoxy)-N-isopropylacetamide]
PIK3CA(Q546K)
  remaining binding at 10 µM: 84%
FLT1
  remaining binding at 10 µM: 95%
PIK3CA(I800L)
  remaining binding at 10 µM: 100%
MAP4K2
  remaining binding at 10 µM: 80%
PDGFRB
  remaining binding at 10 µM: 76%
IGF1R
  remaining binding at 10 µM: 56%
NIM1
  remaining binding at 10 µM: 100%
ROCK1; 10 μM
  ROCK1 vs. ROCK2 in POC: 900 fold
ROCK1; ROCK1, read-out: Percent Control
  remaining binding at 10 µM: 45%
CDC2L2
  remaining binding at 10 µM: 80%
TNK1
  remaining binding at 10 µM: 88%
MKNK1
  remaining binding at 10 µM: 68%
[1]
  remaining binding at 10 µM: 81%
RET(V804L)
  remaining binding at 10 µM: 67%
PRKCQ
  remaining binding at 10 µM: 41%
DYRK2
  remaining binding at 10 µM: 86%
DDR2
  remaining binding at 10 µM: 45%
ALK
  remaining binding at 10 µM: 54%
[2]
  remaining binding at 10 µM: 94%
MARK2
  remaining binding at 10 µM: 71%
CDK11
  remaining binding at 10 µM: 99%
ERK2
  remaining binding at 10 µM: 79%
CSNK2A2
  remaining binding at 10 µM: 0.5%
AKT1
  remaining binding at 10 µM: 88%
[3]
  remaining binding at 10 µM: 94%
NEK9
  remaining binding at 10 µM: 85%
PAK4
  remaining binding at 10 µM: 100%
PFTAIRE2
  remaining binding at 10 µM: 52%
TAK1
  remaining binding at 10 µM: 68%
[4]
  remaining binding at 10 µM: 89%
CAMK2D
  remaining binding at 10 µM: 71%
MAP3K1
  remaining binding at 10 µM: 85%
FES
  remaining binding at 10 µM: 94%
MAK
  remaining binding at 10 µM: 84%
TLK2
  remaining binding at 10 µM: 100%
CDC2L1
  remaining binding at 10 µM: 98%
GAK
  remaining binding at 10 µM: 10%
TRKA
  remaining binding at 10 µM: 61%
JNK1
  remaining binding at 10 µM: 70%
TYRO3
  remaining binding at 10 µM: 91%
BRSK2
  remaining binding at 10 µM: 95%
ABL1-phosphorylated
  remaining binding at 10 µM: 73%
CDK3
  remaining binding at 10 µM: 92%
